“Also recorded” adds a separate entry of the source.
Columns and labels:
Assay type in all cases: in vivo
[1] = Proteinuria (data not shown)
C57BL/6 mice [2] = assay: Renal IRI in WT mice: 4-HNE immunohistochemistry (oxidative stress); details: hepcidin-treated vs untreated IRI mice, FIG. 4a
Procedure: All experiments were performed in accordance with the National Institutes of Health and Institutional Animal Care and Use Guidelines. The Animal Care and Use Committee of the University of Virginia approved all procedures and protocols. C57BL/6 mice from the Jackson Laboratory and hepcidin knockout mice (HAMP−/−), a kind gift from Dr Cindy Roy (John Hopkins University) were used in this study. All experiments were performed on 8-10 weeks old male mice. Kidney ischemia-reperfusion surgery was performed as previously reported (44). The core temperature of the mice was maintained between 34° C. and 36° C. using a heating pad. After anesthetizing the mice (ketamine, 12 mg/ml; atropine, 0.48 mg/ml; xylazine, 24 mg/ml; […] mixture administered per 20 g body weight), bilateral flank incisions were made, both renal pedicles were exposed, and cross-clamped for 26 minutes (severe I/R injury) or 24 minutes (mild I/R injury). After the determined ischemia, clamps were removed, and kidneys were allowed to reperfuse for 24 hours. Ambient postoperative air temperature was maintained between 30° C. and 32° C. until mice had fully recovered. […]
Kidney sections were embedded in paraffin, 3 μm sectioned, and stained for 4 Hydroxynonenal (4-HNE) using standard protocols. […] Sections were washed 3 times in NaPO4 buffer, and then incubated in ABC ready-to-use reagent (Vector Labs) for 30 minutes. […]

[3] = tested on: hepcidin knockout mice (HAMP−/−); assay: Mild renal IRI in HAMP-/- mice: 4-HNE staining and immunofluorescence of neutrophils and CD11b cells; details: for kidney 4-HNE immunoreactivity: hepcidin reconstituted HAMP-/- IRI, FIG. 8c; for kidney neutrophil and CD11b cell infiltration: hepcidin reconstitution in HAMP-/- IRI mice, FIGS. 8e and g
Procedure: (§1) All experiments were performed in accordance with the National Institutes of Health and Institutional Animal Care and Use Guidelines. The Animal Care and Use Committee of the University of Virginia approved all procedures and protocols. C57BL/6 mice from the Jackson Laboratory and hepcidin knockout mice (HAMP−/−), a kind gift from Dr Cindy Roy (John Hopkins University) were used in this study. All experiments were performed on 8-10 weeks old male mice. Kidney ischemia-reperfusion surgery was performed as previously reported (44). The core temperature of the mice was maintained between 34° C. and 36° C. using a heating pad. After anesthetizing the mice (ketamine, 12 mg/ml; atropine, 0.48 mg/ml; xylazine, 24 mg/ml; […] mixture administered per 20 g body weight), bilateral flank incisions were made, both renal pedicles were exposed, and cross-clamped for 26 minutes (severe I/R injury) or 24 minutes (mild I/R injury). After the determined ischemia, clamps were removed, and kidneys were allowed to reperfuse for 24 hours. Ambient postoperative air temperature was maintained between 30° C. and 32° C. until mice had fully recovered. Sham-operated animals underwent bilateral flank incisions without clamping of renal pedicles. Twenty-four hours later, mice were euthanized, and tissues were harvested.
Kidney sections were embedded in paraffin, 3 μm sectioned, and stained for 4 Hydroxynonenal (4-HNE) using standard protocols. Briefly sections were deparaffanized in xylenes, rehydrated in a series of ethanol rinses from 100% to 70% ethanol, then washed in distilled water. Sections were then incubated in 3% H2O2 in methanol for 20 minutes. After treating with Avidin and Biotin for 15 minutes each (Vector) the sections were blocked in blocking buffer containing 10% donkey serum in sodium phosphate buffer (NaPO4 buffer), at room temperature for 30 minutes. 4-HNE antibody was diluted in 1% BSA in NaPO4 buffer (Abcam; 1:1000) and added to sections overnight at 4° C. Sections were washed 3 times with NaPO4 buffer for 5 minutes each and incubated with biotinylated donkey anti-goat secondary antibody (Vector) for 1 hour. Sections were washed 3 times in NaPO4 buffer, and then incubated in ABC ready-to-use reagent (Vector Labs) for 30 minutes. After another 3 washes with NaPO4 buffer the sections exposed to diaminobenzidine (DAB) for 5 minutes followed by washing with in distilled water. The sections were counter-stained with 1% methylene blue solution, washed in water and dehydrated with xylene. Sections were imaged by using a Zeiss Axio Imager Z2/Apotome Microscope fitted with motorized focus drives and motorized XYZ microscope stage and integrated to a workstation running StereoInvestigator software, version 10.51 (MBF Bioscience, Williston, Vt.) […]

C57BL/6 mice [4] = assay: Renal IRI in WT mice: plasma creatinine, H&E histology, NGAL
Procedure: as §1
(§2) Animals were divided into three groups, injected intraperitoneally with water and underwent IRI (IRI), injected intraperitoneally with 50-100 μg hepcidin at different time points prior to IRI (Hepcidin-IRI) or were sham operated (Sham). The experimental design is depicted in FIG. 2a.
Renal function was determined by measurement of plasma creatinine, determined using a modified Jaffe colorimetric assay (44).
Kidneys were fixed in buffered formalin for 48 h, embedded in paraffin, sectioned (3-μm thickness), and stained with hematoxylin and eosin (H&E). The extent of acute tubular necrosis (ATN) following IRI was assessed using H&E stained kidney sections. An investigator blinded to the sample identities was used for these analyses to have an unbiased approach.
(§3) For RNA isolation, frozen tissues were re-suspended in RLT buffer (Qiagen Inc, Valencia, Calif.) and homogenized using TissueLyser system (Qiagen Inc, Valencia, Calif.). Total RNA from tissue homogenate was purified using RNAeasy mini kit (Qiagen Inc, Valencia, Calif.) following manufacturers instructions. 1 μg of RNA was used to synthesize cDNA using the iScript cDNA synthesis kit (Bio-Rad). The cDNA template was mixed with iTAQ SYBR green universal super mix (Bio-Rad) and quantitative PCR was carried out on CFX Connect system (Bio-Rad). Predesigned primers for Caspase-3 and Bcl-2 were purchased from Bio-rad. Glyceraldehyde-3-phosphate dehydrogenase (GAPDH) was amplified in parallel and used as the reference gene in quantification. Data is expressed as the relative gene expression and was calculated using the 2 (−ρρC(T)) method.

C57BL/6 mice [5] = assay: Renal IRI in WT mice: serum iron (ELISA), tissue non-heme iron, liver and serum hepcidin
Procedure: as §1, §2
Serum iron (Abcam), hepcidin (Intrinsic Lifescience) and IL-6 levels (eBioscience) were measured using commercial ELISA kits, as per manufacturers instructions.
Non-heme iron content in tissue was measured using the method described in published literature with slight modifications (60). Briefly, tissues were accurately weighed, finely cut and placed for 20 hours at 65° C. in a solution of 3M HCl/0.61 M trichloroacetic acid. After cooling to room temperature, the acid extract was spun at 12,000 rpm to collect the supernatant. 0.1 mL of the supernatant was incubated with chromogen solution (1.86 mM bathophenanthroline sulfonate/143 mM thioglycollic acid) for 20 minutes, and OD was measured at 535 nm. A standard curve was generated using an iron standard solution (Ricca Iron AA standard) against water as the blank. Non-heme iron content (μg/g) was calculated using the equation described (60).
as §3

Question: For “Mouse hepcidin 25 (DTNFPICIFCCKCCNNSQCGICCKT; listed as Mus musculus)”, which proteinuria [1] is on record?
Answer: reducing proteinuria

Question: What about the “kidney 4-HNE immunoreactivity (oxidative stress)” value (C57BL/6 mice [2]) of the same substance?
Answer: reduced the reactivity to 4 HNE; also recorded: markedly reduced

Question: And the “kidney 4-HNE immunoreactivity (oxidative stress)” value (C57BL/6 mice [2]; listed as hepcidin)?
Answer: far less 4-HNE immunoreactivity

Question: What about the “kidney 4-HNE immunoreactivity” value [3] of the same substance?
Answer: little reactivity to 4 HNE

Question: And the “kidney 4-HNE immunoreactivity” value ([3]; listed as hepcidin)?
Answer: far less immunoreactivity to 4-HNE

Question: And the “kidney neutrophil and CD11b cell infiltration” value [3]?
Answer: dramatically reduced

Question: What about the “kidney neutrophil and CD11b cell infiltration” value ([3]; listed as hepcidin) of the same substance?
Answer: almost completely prevented kidney injury-associated neutrophil or CD11b cell infiltration

Question: What about the “plasma creatinine, comparison of doses” value (C57BL/6 mice [4]; 50 versus 100 μg hepcidin, 24 hours before IRI) of the same substance?
Answer: no significant differences in plasma creatinine

Question: And the “kidney NGAL expression” value (C57BL/6 mice [4]; IRI Vs Hepcidin-IRI, p<0.001)?
Answer: significantly lower expression of NGAL

Question: And the “renal architecture / tubular necrosis (H&E)” value (C57BL/6 mice [4]; hepcidin 50 μg 24 hours before IRI, FIG. 2e)?
Answer: fewer necrotic tubules and luminal debris

Question: What about the plasma creatinine (C57BL/6 mice [4]; hepcidin 50 μg injected 2 hours prior to IRI, p<0.001 vs untreated IRI) of the same substance?
Answer: significantly reduced plasma creatinine levels

Question: And the plasma creatinine (C57BL/6 mice [4]; hepcidin 50 μg injected 8 hours prior to IRI, p<0.001 vs untreated IRI)?
Answer: significantly reduced plasma creatinine levels

Question: What about the plasma creatinine (C57BL/6 mice [4]; single bolus of 50 or 100 μg hepcidin intraperitoneally, 24 hours before IRI, measured 24 hours after IRI, p<0.0001) of the same substance?
Answer: significantly lowered plasma creatinine levels; also recorded: maximum protection

Question: And the “liver hepcidin gene expression” value (C57BL/6 mice [5]; hepcidin before IRI, IRI Vs. Hepcidin-IRI p<0.005, FIG. 1e)?
Answer: significantly prevented the IRI-induced upregulation of hepcidin

Question: What about the “liver non-heme iron levels” value (C57BL/6 mice [5]; hepcidin before IRI, vs IRI p<0.0001) of the same substance?
Answer: effectively prevented IRI-induced depletion of liver non-heme iron

Question: And the “splenic non-heme iron content” value (C57BL/6 mice [5]; hepcidin before IRI, vs IRI p<0.001, vs sham p<0.05)?
Answer: significantly higher splenic non-heme iron content than IRI or sham groups

Question: What about the “kidney non-heme iron content” value (C57BL/6 mice [5]; hepcidin before IRI, vs IRI, p<0.05, FIG. 1b) of the same substance?
Answer: significantly prevented IRI-induced kidney iron accumulation

Question: What about the serum iron levels (C57BL/6 mice [5]; hepcidin i.p. before IRI, vs untreated IRI, p<0.001, FIG. 1a) of the same substance?
Answer: significantly reduced IRI-induced increase in serum iron levels

Question: What about the serum hepcidin levels (C57BL/6 mice [5]; hepcidin-treated IRI vs sham, FIG. 1f) of the same substance?
Answer: not significantly different between hepcidin-treated and sham groups
